Earlier results on 1 substance are cited in patent US8808735B2, “Fast wet-massing method for the preparation of calcium-containing compositions” (Takeda Nycomed AS, priority 2005, dated 2014).

The series relates to fracture rate. The settings on record: annual injections of 150.000-300.000 IU.

As for vitamin D, the overall fracture rate result is given as “significant reduction”.
